Structures can show the parent of a compound that is named as a salt. Where two headings read alike, the source gives them in different places.
Test: Equilibrium solubility in aqueous solutions containing different concentrations of Captisol
Format: physicochemical
Settings: aqueous solution containing Captisol, 20 °C, thermodynamic from solid, free form equivalent
Description: Captisol® improves the solubility of the compound of Formula I in free base form, HCl salt and tosylate salt. Solubility of the above compounds was determined by equilibrating the powder with aqueous solutions containing different concentration of Captisol® at ambient temperature (20° C.).
The solutions were prepared in accordance with methods known to one of skill in the art.

SMILES: C[C@@H](OC[C@@]1(c2ccccc2)CC[C@]2(CCC(=O)N2)CN1)c1cc(C(F)(F)F)cc(C(F)(F)F)c1 [Compound I HCl salt]
- solubility (pH 5, aqueous buffer, Captisol 0 % w/v, pH 5 (NaOH adjusted), ambient temperature (20° C.), read-out: Solubility of Compound I HCl salt at pH 5 (pH adjusted by NaOH)): 50 µg/mL
- solubility (pH 5, aqueous with cosolvent or surfactant or cyclodextrin, Captisol 2 % w/v, pH 5 (NaOH adjusted), ambient temperature (20° C.), read-out: Solubility of Compound I HCl salt at pH 5 (pH adjusted by NaOH)): 3500 µg/mL
- solubility (pH 5, aqueous with cosolvent or surfactant or cyclodextrin, Captisol 5 % w/v, pH 5 (NaOH adjusted), ambient temperature (20° C.), read-out: Solubility of Compound I HCl salt at pH 5 (pH adjusted by NaOH)): 4700 µg/mL
- solubility (pH 5, aqueous with cosolvent or surfactant or cyclodextrin, Captisol 10 % w/v, pH 5 (NaOH adjusted), ambient temperature (20° C.), read-out: Solubility of Compound I HCl salt at pH 5 (pH adjusted by NaOH)): 10000 µg/mL

SMILES: C[C@@H](OC[C@@]1(c2ccccc2)CC[C@]2(CCC(=O)N2)CN1)c1cc(C(F)(F)F)cc(C(F)(F)F)c1 [Compound I Tosylate salt]
- solubility (pH 5, aqueous buffer, Captisol 0 % w/v, pH 5 (NaOH adjusted), 20° C., read-out: Solubility of Compound I Tosylate salt at pH 5 (pH adjusted by NaOH)): 150 µg/mL
- solubility (pH 5, aqueous with cosolvent or surfactant or cyclodextrin, Captisol 10 % w/v, pH 5 (NaOH adjusted), 20° C., read-out: Solubility of Compound I Tosylate salt at pH 5 (pH adjusted by NaOH)): 940 µg/mL
- solubility (pH 5, aqueous with cosolvent or surfactant or cyclodextrin, Captisol 20 % w/v, pH 5 (NaOH adjusted), 20° C., read-out: Solubility of Compound I Tosylate salt at pH 5 (pH adjusted by NaOH)): 1800 µg/mL
- solubility (pH 5, aqueous with cosolvent or surfactant or cyclodextrin, Captisol 40 % w/v, pH 5 (NaOH adjusted), 20° C., read-out: Solubility of Compound I Tosylate salt at pH 5 (pH adjusted by NaOH)): 4100 µg/mL

SMILES: C[C@@H](OC[C@@]1(c2ccccc2)CC[C@]2(CCC(=O)N2)CN1)c1cc(C(F)(F)F)cc(C(F)(F)F)c1 [Compound I free base]
- solubility (pH 5.2, aqueous buffer, Captisol 0 % w/v, pH 5.2 citric acid buffered, 20° C., read-out: Solubility of Compound I free base at pH 5.2 (citric acid buffered)): 170 µg/mL
- solubility (pH 5.2, aqueous with cosolvent or surfactant or cyclodextrin, Captisol 2 % w/v, pH 5.2 citric acid buffered, 20° C., read-out: Solubility of Compound I free base at pH 5.2 (citric acid buffered)): 2200 µg/mL
- solubility (pH 5.2, aqueous with cosolvent or surfactant or cyclodextrin, Captisol 5 % w/v, pH 5.2 citric acid buffered, 20° C., read-out: Solubility of Compound I free base at pH 5.2 (citric acid buffered)): 4600 µg/mL
- solubility (pH 5.2, aqueous with cosolvent or surfactant or cyclodextrin, Captisol 10 % w/v, pH 5.2 citric acid buffered, 20° C., read-out: Solubility of Compound I free base at pH 5.2 (citric acid buffered)): 7200 µg/mL
- solubility (pH 5.2, aqueous with cosolvent or surfactant or cyclodextrin, Captisol 20 % w/v, pH 5.2 citric acid buffered, 20° C., read-out: Solubility of Compound I free base at pH 5.2 (citric acid buffered)): 12000 µg/mL
- solubility (pH 7.2, aqueous buffer, Captisol 0 % w/v, pH 7.2 phosphate buffered, 20° C., read-out: Solubility of Compound I free base at pH 7.2 (phosphate buffered)): 2 µg/mL
- solubility (pH 7.2, aqueous with cosolvent or surfactant or cyclodextrin, Captisol 2 % w/v, pH 7.2 phosphate buffered, 20° C., read-out: Solubility of Compound I free base at pH 7.2 (phosphate buffered)): 50 µg/mL
- solubility (pH 7.2, aqueous with cosolvent or surfactant or cyclodextrin, Captisol 5 % w/v, pH 7.2 phosphate buffered, 20° C., read-out: Solubility of Compound I free base at pH 7.2 (phosphate buffered)): 150 µg/mL
- solubility (pH 7.2, aqueous with cosolvent or surfactant or cyclodextrin, Captisol 10 % w/v, pH 7.2 phosphate buffered, 20° C., read-out: Solubility of Compound I free base at pH 7.2 (phosphate buffered)): 290 µg/mL
- solubility (pH 7.2, aqueous with cosolvent or surfactant or cyclodextrin, Captisol 20 % w/v, pH 7.2 phosphate buffered, 20° C., read-out: Solubility of Compound I free base at pH 7.2 (phosphate buffered)): 610 µg/mL

— US20050153999A1, “Pharmaceutical compositions” (SCHERING CORPORATION, priority 2003, published 2005)
